{"source": "patent US20240132484A1", "about": "“BROAD SPECTRUM ANTIVIRAL COMPOUNDS TARGETING THE SKI COMPLEX” (priority 2020, published 2024)", "key": {"[1]": {"tested_on": "SARS2", "type": "cell-based, SARS-CoV-2", "conditions": "for Percentage Infection Relative to Appropriate DMSO Control: Exp 3 (SMW480), avg background subtraction"}, "[2]": {"tested_on": "cells (nuclei count)", "conditions": "for Toxicity Data: Average, Mean: average of Exp 1-3 (SMW475, SMW477, SMW478), n 9; for Toxicity Data, Percentage Relative to Appropriate DMSO Control, Mean: Average of Exp 1 and Exp 2, n=4; for Toxicity Data, Percentage Relative to Appropriate DMSO Control: single wells"}, "[3]": {"biological_target": "WDR61 (Homo sapiens, UniProt Q9GZS3)", "assay": "Surface Plasmon Resonance with pure WDR61 protein"}}, "note": "“And” between values parts separate entries of the source, which are not always exact repeats. Equal entries are not always repeated. Where two headings read alike, the source gives them in different places."}
{"smiles": "COc1ccc(CNCCc2ccccc2F)c(OCC(O)CN2CCN(C)CC2)c1", "note": "(racemic) [UMB18G]", "values": [{"measurement": "Percentage Infection Relative to Appropriate DMSO Control", "setting": "[1]; 1 uM", "value": "54.21% and 61.59% and 57.93%"}, {"measurement": "Percentage Infection Relative to Appropriate DMSO Control", "setting": "[1]; 5 uM", "value": "19.54% and 24.35% and 30.13%"}, {"measurement": "Percentage Infection Relative to Appropriate DMSO Control", "setting": "[1]; 10 uM", "value": "53.71% and 59.47% and 34.88%"}, {"measurement": "Percentage Infection Relative to Appropriate DMSO Control", "setting": "[1]; 25 uM", "value": "−0.67% and 2.60% and 2.37%"}, {"measurement": "Percentage Infection Relative to Appropriate DMSO Control", "setting": "[1]; 50 uM", "value": "−1.69% and −2.08% and −2.66%"}, {"measurement": "Percentage Inhibition Average 1 μM", "setting": "[1]; SARS2, 1 μM", "value": 40.42, "unit": "%"}, {"measurement": "Screening data (Relative infection to DMSO controls) Average 1 μM", "setting": "[1]; SARS2, 1 μM, 100=DMSO control", "value": 59.58}, {"measurement": "Percentage Inhibition Average 5 μM", "setting": "[1]; SARS2, 5 μM", "value": 68.79, "unit": "%"}, {"measurement": "Screening data (Relative infection to DMSO controls) Average 5 μM", "setting": "[1]; SARS2, 5 μM, 100=DMSO control", "value": 31.21}, {"measurement": "Percentage Inhibition Average 10 μM", "setting": "[1]; SARS2, 10 μM", "value": 90.05, "unit": "%"}, {"measurement": "Screening data (Relative infection to DMSO controls) Average 10 μM", "setting": "[1]; SARS2, 10 μM, 100=DMSO control", "value": 9.95}, {"measurement": "Percentage Inhibition Average 25 μM", "setting": "[1]; SARS2, 25 μM", "value": 93.14, "unit": "%"}, {"measurement": "Screening data (Relative infection to DMSO controls) Average 25 μM", "setting": "[1]; SARS2, 25 μM, 100=DMSO control", "value": 6.86}, {"measurement": "Percentage Inhibition Average 50 μM", "setting": "[1]; SARS2, 50 μM", "value": 94.65, "unit": "%"}, {"measurement": "Screening data (Relative infection to DMSO controls) Average 50 μM", "setting": "[1]; SARS2, 50 μM, 100=DMSO control", "value": 5.35}, {"measurement": "Average (relative infection to DMSO over the 5 tested concentrations)", "setting": "[1]; SARS2, average over 1 to 50 uM, 100=DMSO control", "value": 22.59}, {"measurement": "Toxicity Data: Average, Mean", "setting": "[2]; 1 uM", "value": 125.37, "unit": "%"}, {"measurement": "Relative cell count to DMSO controls, Average 1 μM", "setting": "[2]; 1 μM, toxicity data, 100=DMSO control", "value": 123.37}, {"measurement": "Toxicity Data: Average, Mean", "setting": "[2]; 5 uM", "value": 151.57, "unit": "%"}, {"measurement": "Relative cell count to DMSO controls, Average 5 μM", "setting": "[2]; 5 μM, toxicity data, 100=DMSO control", "value": 134.20}, {"measurement": "Toxicity Data: Average, Mean", "setting": "[2]; 10 uM", "value": 148.72, "unit": "%"}, {"measurement": "Relative cell count to DMSO controls, Average 10 μM", "setting": "[2]; 10 μM, toxicity data, 100=DMSO control", "value": 139.68}, {"measurement": "Toxicity Data: Average, Mean", "setting": "[2]; 25 uM", "value": 110.49, "unit": "%"}, {"measurement": "Relative cell count to DMSO controls, Average 25 μM", "setting": "[2]; 25 μM, toxicity data, 100=DMSO control", "value": 116.94}, {"measurement": "Toxicity Data: Average, Mean", "setting": "[2]; 50 uM", "value": 58.67, "unit": "%"}, {"measurement": "Relative cell count to DMSO controls, Average 50 μM", "setting": "[2]; 50 μM, toxicity data, 100=DMSO control", "value": 85.72}, {"measurement": "Toxicity Data, Average, Mean", "setting": "[2]; Average of Exp 1-3, n 9, 1 uM", "value": 108.03, "unit": "%"}, {"measurement": "Toxicity Data, Average, Mean", "setting": "[2]; Average of Exp 1-3, n 9, 5 uM", "value": 120.64, "unit": "%"}, {"measurement": "Toxicity Data, Average, Mean", "setting": "[2]; Average of Exp 1-3, n 9, 10 uM", "value": 114.41, "unit": "%"}, {"measurement": "Toxicity Data, Average, Mean", "setting": "[2]; Average of Exp 1-3, n 9, 25 uM", "value": 112.46, "unit": "%"}, {"measurement": "Toxicity Data, Average, Mean", "setting": "[2]; Average of Exp 1-3, n 9, 50 uM", "value": 78.15, "unit": "%"}, {"measurement": "Toxicity Data, Percentage Relative to Appropriate DMSO Control, Mean", "setting": "[2]; 1 uM", "value": "121.38% and 131.60%"}, {"measurement": "Toxicity Data, Percentage Relative to Appropriate DMSO Control, Mean", "setting": "[2]; 5 uM", "value": "129.65% and 137.65%"}, {"measurement": "Toxicity Data, Percentage Relative to Appropriate DMSO Control, Mean", "setting": "[2]; 10 uM", "value": "137.10% and 131.04%"}, {"measurement": "Toxicity Data, Percentage Relative to Appropriate DMSO Control, Mean", "setting": "[2]; 25 uM", "value": "118.22% and 120.31%"}, {"measurement": "Toxicity Data, Percentage Relative to Appropriate DMSO Control, Mean", "setting": "[2]; 50 uM", "value": "93.28% and 100.37%"}, {"measurement": "Toxicity Data, nuclei count relative to DMSO controls", "setting": "[2]; Exp 1 (SMW454), 1 uM", "value": "94.8% and 106.7% and 107.9%"}, {"measurement": "Toxicity Data, nuclei count relative to DMSO controls", "setting": "[2]; Exp 1 (SMW454), 5 uM", "value": "92.6% and 104.0% and 109.1%"}, {"measurement": "Toxicity Data, nuclei count relative to DMSO controls", "setting": "[2]; Exp 1 (SMW454), 10 uM", "value": "94.4% and 107.2% and 106.3%"}, {"measurement": "Toxicity Data, nuclei count relative to DMSO controls", "setting": "[2]; Exp 1 (SMW454), 25 uM", "value": "98.3% and 107.4% and 105.6%"}, {"measurement": "Toxicity Data, nuclei count relative to DMSO controls", "setting": "[2]; Exp 1 (SMW454), 50 uM", "value": "95.5% and 101.6% and 97.7%"}, {"measurement": "Toxicity Data, Percentage Relative to Appropriate DMSO Control", "setting": "[2]; Exp 1 (SMW506), 10 uM", "value": "114% and 126% and 122%"}, {"measurement": "Toxicity Data, Percentage Relative to Appropriate DMSO Control", "setting": "[2]; Exp 1 (SMW506), 25 uM", "value": "111% and 119% and 121%"}, {"measurement": "Toxicity Data, nuclei count relative to DMSO controls", "setting": "[2]; Exp 2 (SMW466), 1 uM", "value": "77.1% and 105.3% and 105.6%"}, {"measurement": "Toxicity Data, nuclei count relative to DMSO controls", "setting": "[2]; Exp 2 (SMW466), 5 uM", "value": "80.8% and 132.0% and 142.0%"}, {"measurement": "Toxicity Data, nuclei count relative to DMSO controls", "setting": "[2]; Exp 2 (SMW466), 10 uM", "value": "78.2% and 135.1% and 144.2%"}, {"measurement": "Toxicity Data, nuclei count relative to DMSO controls", "setting": "[2]; Exp 2 (SMW466), 25 uM", "value": "68.6% and 126.9% and 132.7%"}, {"measurement": "Toxicity Data, Percentage Relative to Appropriate DMSO Control", "setting": "[2]; Exp 2 (SMW507), 5 uM", "value": "144% and 156% and 158%"}, {"measurement": "Toxicity Data, Percentage Relative to Appropriate DMSO Control", "setting": "[2]; Exp 2 (SMW507), 10 uM", "value": "148% and 160% and 140%"}, {"measurement": "Toxicity Data, nuclei count relative to DMSO controls", "setting": "[2]; Exp 3 (SMW480), 1 uM", "value": "110.1% and 127.5% and 137.1%"}, {"measurement": "Toxicity Data, nuclei count relative to DMSO controls", "setting": "[2]; Exp 3 (SMW480), 5 uM", "value": "113.4% and 154.3% and 157.5%"}, {"measurement": "Toxicity Data, nuclei count relative to DMSO controls", "setting": "[2]; Exp 3 (SMW480), 10 uM", "value": "89.6% and 123.8% and 150.9%"}, {"measurement": "Toxicity Data, nuclei count relative to DMSO controls", "setting": "[2]; Exp 3 (SMW480), 50 uM", "value": "60.8% and 69.5% and 85.1%"}, {"measurement": "Relative cell count to DMSO controls, Average (for correlation analysis)", "setting": "[2]; average value over the 5 tested concentrations (1 to 50 uM)", "value": 119.98}, {"measurement": "direct binding to WDR61 by SPR", "setting": "[3]", "value": "binding directly to WDR61"}]}
